Among the data in patent US20230233569A1 (Revolution Medicines, Inc., priority 2020, published 2023) are IC50 values, retold here.

What is called IC50 is the concentration that gives 50% inhibition.

The target in test [1] is KRAS G13D (Homo sapiens, UniProt P01116+P62937, G13D). The test can be described thus: Disruption of BRAF RBD interaction with Ras (FRET / MOA assay, with Cyclophilin A). To be noted: KRAS G13D; read-out: KRAS G13D FRET data IC50. The format is biochemical. The essentials:
(§1)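 Here, compound titrations (ten points, factor 3, from 30 μM final) act on nucleotide-bound K-Ras and Cyclophilin A, and ternary complex formation disrupts the RAF RBD interaction.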

Test [2] concerns the target KRAS G12C (Homo sapiens, UniProt P01116+P62937, G12C). Described as above. The format is biochemical. The settings on record: read-out: KRAS G12C FRET data, IC50. The essentials:
as §1

For test [3], the target named is KRAS G12D (Homo sapiens, UniProt P01116+P62937, G12D). Described as above. To be noted: read-out: KRAS G12D FRET data, IC50. Type of test: biochemical. In a few lines: as §1
In test [4] the target is NRAS G12C (Homo sapiens, UniProt P01111+P62937, G12C). The description is as above. The settings on record: NRAS G12C; read-out: NRAS G12C FRET data IC50. Type of test: biochemical.
The target of test [5] is KRAS WT (Homo sapiens, UniProt P01116+P62937). The test is described as above. The format is biochemical. The settings on record: KRAS WT; read-out: KRAS WT FRET data IC50. The essentials: as §1
Test [6] deals with KRAS G13C (Homo sapiens, UniProt P01116+P62937, G13C). The description is as above. The format is biochemical. The settings on record: read-out: KRAS G13C FRET data, IC50. In a few lines:
as §1

For test [7], the target named is KRAS G12V (Homo sapiens, UniProt P01116+P62937, G12V). The test is described as above. The format is biochemical. The settings on record: KRAS G12V; read-out: KRAS G12V FRET data IC50. In a few lines:
as §1

The target in test [8] is KRAS G12S (Homo sapiens, UniProt P01116+P62937, G12S). The test is described as above. Type of test: biochemical. The settings on record: read-out: KRAS G12S FRET data, IC50. In a few lines:
as §1

The subject of test [9] is Capan-1 (K-Ras G12V). The experiment in a line: CellTiter-Glo cell viability assay, 5-day treatment. To be noted: Homo sapiens, CAPAN-1, 120 h, 5-day treatment; read-out: Capan-1 Cell Viability assay data (K-Ras G12V, IC50). Type of test: cell-based. The essentials: (§2)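 Luminescence read-out after 5 days of compound exposure, with plates first brought to room temperature for roughly 30 minutes. Values are percent of averaged DMSO wells, fitted by four-parameter logistic regression.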
Background: ATP-based viability assays read luminescence as a measure of living cells.

Test [10] relates to NCI-H358 (K-Ras G12C). The test is described as above. The settings on record: Homo sapiens, NCI-H358, 120 h, 5-day treatment; read-out: H358 Cell Viability assay data (K-Ras G12C, IC50). Type of test: cell-based. The essentials: as §2
Test [11] addresses NRAS WT (Homo sapiens, UniProt P01111+P62937). The experiment in a line: Disruption of BRAF RBD interaction with Ras (FRET / MOA assay, with Cyclophilin A). The format is biochemical. To be noted: NRAS WT; read-out: NRAS WT FRET data IC50. The essentials:
(§3)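 IC50 reflects compound-driven Ras:Cyclophilin A ternary complex displacing BRAF RBD, read as lowered TR-FRET ratio relative to DMSO after Eu anti-His (10 nM) and APC anti-GST (50 nM) detection for 1.5 h. Prior incubation 3 h, 25° C, with 12.5 nM GMPPNP-loaded Ras, 50 nM BRAF RBD, 25 μM Cyclophilin A; top compound 30 μM.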

Test [12] deals with NRAS Q61K (Homo sapiens, UniProt P01111+P62937, Q61K). Described as above. The format is biochemical. To be noted: NRAS Q61K; read-out: NRAS Q61K FRET data IC50. The essentials:
as §3

The target of test [13] is NRAS Q61R (Homo sapiens, UniProt P01111+P62937, Q61R). The description is as above. The settings on record: NRAS Q61R; read-out: NRAS Q61R FRET data IC50. The format is biochemical. The essentials:
as §3

Test [14] has as its target KRAS Q61H (Homo sapiens, UniProt P01116+P62937, Q61H). The test is described as above. The format is biochemical. To be noted: KRAS Q61H; read-out: KRAS Q61H FRET data IC50. The essentials:
as §3

KRAS G12V, sequence (P01116 1-169 isoform P01116-2 G12V limits assumed): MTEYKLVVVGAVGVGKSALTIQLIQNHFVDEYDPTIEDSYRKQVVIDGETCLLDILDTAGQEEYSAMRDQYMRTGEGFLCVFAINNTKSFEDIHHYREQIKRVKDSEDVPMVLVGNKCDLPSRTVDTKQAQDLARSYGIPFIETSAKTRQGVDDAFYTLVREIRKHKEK
KRAS G12V, sequence (P62937 whole entry): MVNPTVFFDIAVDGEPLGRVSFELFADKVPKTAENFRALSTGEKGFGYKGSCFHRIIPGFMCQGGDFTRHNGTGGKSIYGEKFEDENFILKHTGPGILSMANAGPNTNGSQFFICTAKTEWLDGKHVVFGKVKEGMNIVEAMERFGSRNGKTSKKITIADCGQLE
KRAS G12S, sequence (P01116 1-169 isoform P01116-2 G12S limits assumed): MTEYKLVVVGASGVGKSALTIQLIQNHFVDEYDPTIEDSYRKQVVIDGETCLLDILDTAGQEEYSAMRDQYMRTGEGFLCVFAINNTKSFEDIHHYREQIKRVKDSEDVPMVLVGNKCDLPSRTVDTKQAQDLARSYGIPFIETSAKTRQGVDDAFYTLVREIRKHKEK
KRAS G12S, sequence (P62937 whole entry): as the sequence (P62937 whole entry) above
KRAS G12C, sequence (P01116 1-169 isoform P01116-2 G12C): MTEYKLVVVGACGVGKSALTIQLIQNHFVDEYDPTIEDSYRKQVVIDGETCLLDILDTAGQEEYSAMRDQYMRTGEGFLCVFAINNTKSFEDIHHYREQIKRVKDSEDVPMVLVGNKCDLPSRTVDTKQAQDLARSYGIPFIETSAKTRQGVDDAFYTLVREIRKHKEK
KRAS G12C, sequence (P62937 whole entry): as the sequence (P62937 whole entry) above
KRAS G13C, sequence (P01116 1-169 isoform P01116-2 G13C): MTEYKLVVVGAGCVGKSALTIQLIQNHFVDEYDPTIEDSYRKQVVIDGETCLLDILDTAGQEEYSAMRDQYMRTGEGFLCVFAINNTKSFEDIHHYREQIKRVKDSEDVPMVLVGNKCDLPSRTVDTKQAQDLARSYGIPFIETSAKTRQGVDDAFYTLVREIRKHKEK
KRAS G13C, sequence (P62937 whole entry): as the sequence (P62937 whole entry) above
NRAS Q61R, sequence (P01111 whole entry Q61R): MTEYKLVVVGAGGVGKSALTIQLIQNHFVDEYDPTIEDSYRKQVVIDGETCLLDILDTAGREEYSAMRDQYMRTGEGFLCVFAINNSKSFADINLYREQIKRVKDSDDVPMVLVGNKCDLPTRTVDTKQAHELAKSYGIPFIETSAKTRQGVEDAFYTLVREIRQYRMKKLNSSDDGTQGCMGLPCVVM
NRAS Q61R, sequence (P62937 whole entry): as the sequence (P62937 whole entry) above
KRAS Q61H, sequence (P01116 1-169 isoform P01116-2 Q61H limits assumed): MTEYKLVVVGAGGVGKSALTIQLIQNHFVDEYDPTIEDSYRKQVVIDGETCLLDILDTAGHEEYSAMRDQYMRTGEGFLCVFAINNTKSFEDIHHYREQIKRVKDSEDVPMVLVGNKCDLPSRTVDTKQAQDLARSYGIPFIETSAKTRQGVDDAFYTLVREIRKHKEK
KRAS Q61H, sequence (P62937 whole entry): as the sequence (P62937 whole entry) above
NRAS G12C, sequence (P01111 whole entry G12C): as the sequence (P01111 whole entry Q61R) above, with G12C, R61Q counted along it
NRAS G12C, sequence (P62937 whole entry): as the sequence (P62937 whole entry) above
KRAS G13D, sequence (P01116 1-169 isoform P01116-2 G13D limits assumed): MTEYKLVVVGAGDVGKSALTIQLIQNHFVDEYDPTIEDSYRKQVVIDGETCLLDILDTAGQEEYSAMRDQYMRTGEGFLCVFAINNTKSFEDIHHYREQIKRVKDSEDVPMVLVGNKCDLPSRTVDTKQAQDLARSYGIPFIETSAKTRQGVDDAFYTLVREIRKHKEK
KRAS G13D, sequence (P62937 whole entry): as the sequence (P62937 whole entry) above
NRAS Q61K, sequence (P01111 whole entry Q61K): as the sequence (P01111 whole entry Q61R) above, with R61K counted along it
NRAS Q61K, sequence (P62937 whole entry): as the sequence (P62937 whole entry) above
KRAS G12D, sequence (P01116 1-169 isoform P01116-2 G12D limits assumed): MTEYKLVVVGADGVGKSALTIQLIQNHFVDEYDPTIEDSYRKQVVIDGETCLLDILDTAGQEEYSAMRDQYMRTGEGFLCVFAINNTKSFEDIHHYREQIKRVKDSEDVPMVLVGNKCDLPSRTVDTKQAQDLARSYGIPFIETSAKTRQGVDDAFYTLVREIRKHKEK
KRAS G12D, sequence (P62937 whole entry): as the sequence (P62937 whole entry) above
NRAS WT, sequence (P01111 whole entry): as the sequence (P01111 whole entry Q61R) above, with R61Q counted along it
NRAS WT, sequence (P62937 whole entry): as the sequence (P62937 whole entry) above
KRAS WT, sequence (P01116 1-169 isoform P01116-2 limits assumed): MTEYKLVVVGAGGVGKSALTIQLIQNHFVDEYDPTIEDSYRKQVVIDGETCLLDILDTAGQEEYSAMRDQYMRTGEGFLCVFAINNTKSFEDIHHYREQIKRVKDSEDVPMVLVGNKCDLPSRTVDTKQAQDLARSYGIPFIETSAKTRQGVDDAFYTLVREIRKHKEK
KRAS WT, sequence (P62937 whole entry): as the sequence (P62937 whole entry) above

As to `CCn1c(-c2cccnc2[C@H](C)OC)c2c3cc(ccc31)-c1nc(cs1)C[C@H](NC(=O)[C@H](C(C)C)N(C)C(C)=O)C(=O)N1CCC[C@H](N1)C(=O)OCC(C)(C)C2` [Example A152], the half-inhibitory concentration (IC50) in test [1], in test [2], in test [3], in [4], in [5] and in test [6] was 1000 to 10000 nM each time. Moreover, the half-maximal inhibitory concentration (IC50) lay in the range of 1000 to 10000 nM in [7]; 1000 to 10000 nM in test [8]; 100 to 1000 nM in [9]; 100 to 1000 nM in test [10]; 1000 to 10000 nM in [11]; 100 to 1000 nM in [12]. The results for the half-maximal inhibitory concentration (IC50) in [13] and in [14] were 1000 to 10000 nM and 100 to 1000 nM, respectively.
For `CCn1c(-c2cccnc2[C@H](C)OC)c2c3cc(ccc31)-c1cc(O)cc(c1)C[C@H](NC(=O)[C@H](C(C)C)N(C)C(=O)OC1CC1)C(=O)N1CCC[C@H](N1)C(=O)OCC(C)(C)C2` [Example A174], the IC50 in test [1], in test [2], in test [3], in [4], in test [5] and in test [6] was 100 to 1000 nM throughout. For the same compound, the concentration for half-maximal inhibition (IC50) in test [7], in test [8], in test [9], in [10], in test [11] and in test [12] was 100 to 1000 nM in each case. Further, the values for the half-inhibitory concentration (IC50) in test [13] and in test [14] were 100 to 1000 nM and 10 to 100 nM, respectively.
As to `CCn1c(-c2cccnc2[C@H](C)OC)c2c3cc(ccc31)-c1cc(O)cc(c1)C[C@H](NC(=O)[C@H](C(C)C)N(C)C(=O)[C@H]1CCN(C(=O)OC3COC3)C1)C(=O)N1CCC[C@H](N1)C(=O)OCC(C)(C)C2` [Example A204], the IC50 in [1] was 10 to 100 nM; in [2] it was 10 to 100 nM; in [3], 100 to 1000 nM; in test [4] it was 10 to 100 nM; in test [5], 10 to 100 nM; in test [6], 10 to 100 nM. Also, the 50% inhibitory concentration (IC50) in test [7] fell in the range of 10 to 100 nM; in [8], 10 to 100 nM; in test [9] it was 10 to 100 nM; in test [10] it was 10 to 100 nM; in test [11], 10 to 100 nM; in test [12], 100 to 1000 nM. For the same compound, the half-inhibitory concentration (IC50) was 100 to 1000 nM in test [13] and 10 to 100 nM in test [14].
As to `CCn1c(-c2cccnc2[C@H](C)OC)c2c3cc(ccc31)-c1csc(n1)C[C@H](NC(=O)[C@H](C(C)C)N(C)C(=O)O[C@H]1CCOC1)C(=O)N1CCC[C@H](N1)C(=O)OCC(C)(C)C2` [Example A210], the IC50 in test [1] fell in the range of 1000 to 10000 nM; in test [2], 100 to 1000 nM; in test [3], 1000 to 10000 nM; in [4], 100 to 1000 nM; in [5], 100 to 1000 nM; in [6] it was 1000 to 10000 nM. Also, the IC50 in test [7] fell in the range of 1000 to 10000 nM; in [8], 1000 to 10000 nM; in test [9], 10 to 100 nM; in test [10] it was 100 to 1000 nM; in test [11], 100 to 1000 nM; in [12], 100 to 1000 nM. The IC50 in test [13] and in test [14] was 100 to 1000 nM each time.
Consider `CCn1c(-c2cccnc2[C@H](C)OC)c2c3cc(ccc31)-c1cc(O)cc(c1)C[C@H](NC(=O)[C@H](C(C)C)N(C)C(=O)C1CCc3ccccc3N1)C(=O)N1CCC[C@H](N1)C(=O)OCC(C)(C)C2` (stereo partly shown) [Example A226], for which the IC50 in test [1] fell in the range of 100 to 1000 nM; in test [2] it was 10 to 100 nM; in [3] it was 1000 to 10000 nM; in test [4], 100 to 1000 nM; in test [5], 100 to 1000 nM; in test [6], 10 to 100 nM. For the same compound, the IC50 in test [7], in test [8], in test [9], in test [10], in test [11] and in test [12] was 100 to 1000 nM each time. Besides, the IC50 in test [13] lay in the range of 100 to 1000 nM; in test [14], 10 to 100 nM.
